Results published in US20240408096A1, “DOSING REGIMENS FOR ORAL ALK2 KINASE INHIBITORS” (BioCryst Pharmaceuticals, Inc., priority 2020, published 2024).
“Also recorded” adds a separate entry of the source.

Experiments:
[1] = test system: HO bone formation; assay: mouse model of HO bone formation; format: in vivo; conditions: dosing for 21 days
[2] = plasma protein binding, rat; format: in vitro ADME; conditions: in vitro
[3] = target: CYP2C19 (Homo sapiens, UniProt P33261); assay: CYP inhibition in vitro; format: in vitro ADME
CYP2C19, sequence (P33261 whole entry): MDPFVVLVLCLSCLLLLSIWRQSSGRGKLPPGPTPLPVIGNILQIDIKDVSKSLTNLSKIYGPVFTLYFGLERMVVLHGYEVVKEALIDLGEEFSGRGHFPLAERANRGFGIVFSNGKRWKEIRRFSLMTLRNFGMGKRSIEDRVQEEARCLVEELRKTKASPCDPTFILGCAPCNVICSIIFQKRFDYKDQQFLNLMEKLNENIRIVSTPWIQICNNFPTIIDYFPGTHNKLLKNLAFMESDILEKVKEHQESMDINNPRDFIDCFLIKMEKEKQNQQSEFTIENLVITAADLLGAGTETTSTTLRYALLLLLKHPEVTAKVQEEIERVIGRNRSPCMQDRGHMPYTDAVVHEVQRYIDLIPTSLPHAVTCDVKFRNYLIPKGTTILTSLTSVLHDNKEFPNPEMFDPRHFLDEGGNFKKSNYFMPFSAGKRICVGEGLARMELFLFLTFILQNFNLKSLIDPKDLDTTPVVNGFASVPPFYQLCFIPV

[4] = target: CYP3A4 (Homo sapiens, UniProt P08684); assay: CYP inhibition in vitro; format: in vitro ADME
CYP3A4, sequence (P08684 whole entry): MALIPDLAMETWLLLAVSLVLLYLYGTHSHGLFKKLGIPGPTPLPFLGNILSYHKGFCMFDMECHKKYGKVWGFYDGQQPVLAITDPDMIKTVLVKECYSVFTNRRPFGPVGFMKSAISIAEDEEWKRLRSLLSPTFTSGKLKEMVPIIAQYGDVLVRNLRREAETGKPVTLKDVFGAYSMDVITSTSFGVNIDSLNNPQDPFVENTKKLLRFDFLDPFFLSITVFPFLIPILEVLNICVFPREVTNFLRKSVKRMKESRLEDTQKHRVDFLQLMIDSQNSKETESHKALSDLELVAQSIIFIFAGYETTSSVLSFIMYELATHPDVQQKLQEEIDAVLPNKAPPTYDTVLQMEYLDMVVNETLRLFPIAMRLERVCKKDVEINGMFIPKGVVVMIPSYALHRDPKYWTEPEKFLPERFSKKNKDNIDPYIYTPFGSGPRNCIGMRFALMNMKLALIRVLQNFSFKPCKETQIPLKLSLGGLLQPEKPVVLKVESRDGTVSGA

[5] = rat micronucleus-comet genotoxicity assays; conditions: in vivo
[6] = Phase 1 Part 2 (MAD) plasma PK; format: in vivo, human; conditions: for Cmax / AUC0-24 / Tmax / AUCtau / Ctau / t1/2: Part 2 MAD; for Cmax / AUC0-24 / AUCtau / Ctau: geometric mean (CV%); for Tmax / t1/2: median (min, max)
Experimental: (§1) Four sequential MAD cohorts were dosed.
For each cohort of Part 2, the daily dose of study drug was administered as a single dose (1 time daily or QD). Similar to Part 1 of the study, following a screening period to determine eligibility, subjects in each cohort entered the CRU on the […] of Day −1. Study eligibility was re-confirmed upon admission to the CRU, and subjects remained in the CRU overnight prior to dosing on Day 1. Subjects received a final morning dose of study drug on the last day of dosing. Subjects were discharged from the CRU following sample collection on Day 11. Dosage administration was supervised by study personnel and all subjects completed dosing per protocol. […] Subjects returned to the CRU on Day 23 (+2 days) for final follow-up safety assessments.
Serial venous blood samples were withdrawn via an indwelling cannula or by venipuncture according to the schedule in Tables 4 and 5 for Parts 1 and 2, respectively. Samples were collected into 4 mL lithium heparin tubes. The acceptable deviations from the nominal blood sampling times in Part 1 and Part 2 are as follows: the pre-dose blood sample will be taken ≤1 hour before dosing; 0 to 1 hour post-dose samples will be taken within +2 minutes of the nominal post-dose sampling time; >1 to 12 hours post-dose samples will be taken within +10 minutes of the nominal post-dose sampling time; and >12 hours post-dose samples will be taken within +30 minutes of the nominal post-dose sampling time if subjects are resident in the clinic. […]
In all derivations of PK parameters, 0 will be substituted for concentrations below the quantification limit (BQL) of the assay. Samples that are BQL but are between 2 samples with detectable concentrations will be excluded from PK analysis.
Dose proportionality was evaluated over all fasted doses within a study part based upon AUC0-inf (Part 1), AUCtau (Part 2), AUC0-t, and Cmax using the power model. The analysis was performed for Day 1 (Parts 1 and 2) and Day 7 (Part 2).
Dose proportionality for PK parameters was assessed by restricted maximum likelihood using SAS PROC MIXED (SAS STAT software, Cary N.C.). The mean slope was estimated from the power model and the corresponding 90% confidence interval (CI) calculated. Dose proportionality was also examined using an analysis of variance (ANOVA) method, where PK parameters for each dose were compared with a reference dose on a pair-wise basis. The ratio of geometric least squares (GLS) means and the corresponding 90% CI was estimated for each PK parameter of interest.
Accumulation ratios were calculated using AUC values from serial sampling after the first and last dose in Part 2. […] A mixed-effects model with a fixed effect for day and a random subject effect was used to estimate the difference between AUCtau and AUC0-t on the log scale.
Time to steady-state was evaluated in Part 2 using Ctrough (observed plasma concentration immediately before dosing) levels, where sufficient samples existed to determine steady state. The following timepoints were used in the analysis for once daily dosing: 24, 48, and 72 hours post dose (for Day 1) and pre-dose and 24 hours post dose on the last day of dosing (Day 7).

[7] = Phase 1 Part 2 (MAD) urinary PK; format: in vivo, human; conditions: for CLR,0-6 / CLR,6-12 / CLR,32-24 / CLR,144-150 / CLR,150-156 / CLR,156-168 / Cum % excreted0-168 / CumAe0-168: Part 2 MAD, geometric mean (CV%); for CumAe0-168: urine 0 to 168 hours
Experimental: as §1
Urine samples were collected according to the schedule in Tables 4 and 5 for Parts 1 and 2, respectively. The pre-dose sample on Day 1 was collected any time in the 2 hours prior to dosing. A 30-minute window was allowed around collection intervals.

## COc1cc(-n2cnc(Nc3nc(N4CCC[C@H]4C(N)=O)nc4sccc34)c2)cc(OC)c1OC.O=C(O)CC(O)(CC(=O)O)C(=O)O [Compound A]
[1]
  new HO bone formation: significant reduction in new HO bone formation
[2]
  plasma protein binding: ≥ 99.9%
[3]
  CYP2C19 inhibition: is an inhibitor
[4]
  CYP3A4 inhibition: is an inhibitor
[5]
  micronucleus-comet genotoxicity: negative
[6]; 5 mg QD
  Day 1 AUC0-24, geometric least square mean: 797.89 ng·h/mL
  Day 7 AUCtau, geometric least square mean: 915.48 ng·h/mL
[6]; 10 mg QD
  Day 1 AUC0-24, geometric least square mean: 1703.36 ng·h/mL
  Day 7 AUCtau, geometric least square mean: 2022.93 ng·h/mL
[6]; 15 mg QD
  Day 1 AUC0-24, geometric least square mean: 2204.47 ng·h/mL
  Day 7 AUCtau, geometric least square mean: 2303.26 ng·h/mL
[6]; 20 mg QD
  Day 1 AUC0-24, geometric least square mean: 3159.74 ng·h/mL
  Day 7 AUCtau, geometric least square mean: 3184.88 ng·h/mL
[6]; Part 2, Days 1 and 7, all dosing cohorts
  median Tmax: approximately 2.0 hours
[6]; Part 2, QD dosing, from trough concentrations
  time to steady state: ≤ 3 days
[6]; Part 2, each MAD cohort, 7 days QD
  accumulation: No accumulation or minimal accumulation
[6]; Part 2, multiple oral doses 5 to 20 mg, healthy subjects
  dose proportionality of plasma exposure: exhibits dose proportionality; also recorded: approximately linear and dose proportional
[6]; Day 1, 5 mg QD oral, fasted
  Cmax: 105.0 (45.9) ng/ml
[6]; Day 1, 5 mg QD
  AUC0-24: 797.9 (37.8) ng · h/mL
  Tmax: 2.009 (1.01, 4.01) h
[6]; Day 1, 10 mg QD oral, fasted
  Cmax: 217.0 (46.2) ng/ml
[6]; Day 1, 10 mg QD
  AUC0-24: 1703 (37.4) ng · h/mL
  Tmax: 2.009 (2.01, 3.01) h
[6]; Day 1, 15 mg QD oral, fasted
  Cmax: 324.2 (34.9) ng/ml
[6]; Day 1, 15 mg QD
  AUC0-24: 2204 (39.0) ng · h/mL
  Tmax: 2.006 (1.01, 4.00) h
[6]; Day 1, 20 mg QD oral, fasted
  Cmax: 464.1 (26.1) ng/ml
[6]; Day 1, 20 mg QD
  AUC0-24: 3160 (21.2) ng · h/mL
  Tmax: 2.007 (2.00, 3.00) h
[6]; Day 7, 5 mg QD
  AUCtau: 915.5 (40.7) ng · h/mL
  Cmax: 117.0 (44.4) ng/ml
  Ctau: 10.70 (72.6) ng/ml
  Tmax: 2.007 (1.01, 3.03) h
  t1/2: 8,846 (4.73, 25.1) h
[6]; Day 7, 10 mg QD
  AUCtau: 2023 (29.7) ng · h/mL
  Cmax: 238.0 (22.6) ng/ml
  Ctau: 25.47 (68.1) ng/ml
  Tmax: 2.021 (2.01, 3.01) h
  t1/2: 8.512 (6.09, 12.3) h
[6]; Day 7, 15 mg QD
  AUCtau: 2303 (24.9) ng · h/mL
  Cmax: 333.5 (29.7) ng/ml
  Ctau: 19.02 (59.6) ng/ml
  Tmax: 2.006 (1,01, 3.00) h
  t1/2: 7.534 (4.05, 12.2) h
[6]; Day 7, 20 mg QD
  AUCtau: 3185 (24.4) ng · h/mL
  Cmax: 413.9 (14.9) ng/ml
  Ctau: 30.75 (66.5) ng/ml
  Tmax: 2.001 (1.00, 3.00) h
  t1/2: 8.332 (4.61, 11.0) h
[6]; Part 2 multiple ascending oral dose cohorts (FIG. 7)
  dose proportionality of steady state Cmax: approximately linear and dose-proportional
[6]; Part 2 multiple ascending oral dose cohorts (FIG. 8)
  dose proportionality of steady state AUCtau: approximately linear and dose-proportional
[7]; Part 2, 5 to 20 mg QD
  cumulative amount of parent compound excreted in the urine: less than 1%
[7]; 5 mg QD
  CLR,0-6: 17.16 (90.4) mL/h
  CLR,6-12: 11.11 (152.2) mL/h
  CLR,32-24: 12.32 (83.5) mL/h
  CLR,144-150: 22.90 (79.5) mL/h
  CLR,150-156: 10.85 (144.3) mL/h
  CLR,156-168: 10.66 (114.9) mL/h
  Cum % excreted0-168: 0.2515 (114.5) %
  CumAe0-168: 88,030 (114.5) ng
[7]; 10 mg QD
  CLR,0-6: 9.850 (75.1) mL/h
  CLR,6-12: 5.468 (73.0) mL/h
  CLR,32-24: 5.694 (65.7) mL/h
  CLR,144-150: 12.01 (64.4) mL/h
  CLR,150-156: 4.787 (168.5) mL/h
  CLR,156-168: 3.480 (152.2) mL/h
  Cum % excreted0-168: 0.1209 (66.5) %
  CumAe0-168: 84,600 (66.5) ng
[7]; 15 mg QD
  CLR,0-6: 14.19 (131.3) mL/h
  CLR,6-12: 7.172 (100.3) mL/h
  CLR,32-24: 6.837 (92.5) mL/h
  CLR,144-150: 11.49 (171.8) mL/h
  CLR,150-156: 8.596 (123.2) mL/h
  CLR,156-168: 6.846 (93.4) mL/h
  Cum % excreted0-168: 0.1676 (89.5) %
  CumAe0-168: 176,000 (89,5) ng
[7]; 20 mg QD
  CLR,0-6: 13.36 (76.2) mL/h
  CLR,6-12: 9.673 (64.5) mL/h
  CLR,32-24: 7.595 (39.1) mL/h
  CLR,144-150: 15.28 (85.8) mL/h
  CLR,150-156: 7.978 (54.7) mL/h
  CLR,156-168: 4.674 (146.4) mL/h
  Cum % excreted0-168: 0.1705 (47.2) %
  CumAe0-168: 238,600 (47.2) ng
